Key:
[1] = system: primary cultures of mouse cortical neurons; test: Toxicity of high concentrations to cortical neuron cultures; format: cell-based; settings: concentrations of 10 μg/ml or above
cortical neurons = test: OGD, viable neurons counted by FACS (Annexin V / 7AAD); format: cell-based, mouse; settings: 0.03 and 0.1 μg/ml (0.1 and 0.3 μM); 24 hrs pretreatment; 90 min OGD (vehicle approximately 45%)
Protocol: Embryonic day 16 timed pregnant CD1 out-bred mice were obtained from Charles River Laboratories (Charles River; QC, Canada). Primary cortical neuron cultures were prepared from cerebral cortices of wild type (WT) CD1 mouse embryos as described previously, with the following modifications. Pregnant CD1 females were heavily anaesthetized with isoflurane vapor (Benson Medical Industries, Inc., Markham, ON) before being euthanized by decapitation. The embryonic day 16 (E16) fetuses were immediately removed from the sacrificed pregnant females by cesarean section and placed in ice-cold Hank's Balanced Salt Solution (HBSS) (GIBCO; Invitrogen, Amarillo, Calif.). The meninges were removed from the brains and cortices were isolated under a dissecting microscope. […] The trypsin and inhibitor solutions were discarded and each cell pellet was suspended in 1 ml of cortical neuron plating medium (Neurobasal medium (Invitrogen, Amarillo, Calif.) with 10% fetal bovine serum (GIBCO; Invitrogen; Amarillo, Calif.), 2% B27 supplement, 1 mM L-glutamine, and 1% Gentamycin (Invitrogen; Amarillo, Calif.), triturated 10 times and counted using trypan blue exclusion and a hemocytometer. Cortical neurons were plated in 96-well plates (Corning; Lowell, Mass.) that were pre-coated with poly-D-lysine (PDL; Sigma-Aldrich; Oakville, ON) according to the procedure described by the manufacturer. […]

SMILES	toxicity to primary cultures of mouse cortical neurons [1]	neuronal survival (viable neurons relative to control, no OGD) (cortical neurons)
O=c1c(O)c(-c2ccc(O)c(O)c2)oc2cc(O)cc(O)c12 [Q]	increasingly toxic	55%
Oc1cc(O)c2c(c1)O[C@H](c1ccc(O)c(O)c1)[C@H](O)C2 [E, (2R,3R)-2-(3,4-dihydroxyphenyl)-3,4-dihydro-2H-chromene-3,5,7-triol]	increasingly toxic	55%
